Reference: ChEMBL document CHEMBL3988442, “University of Dundee, Small-Polar-MMV Screening Library” (2021)
Where “and” joins values, the source holds several entries; their conditions need not be identical. Equal entries are not always repeated.

What was measured:
[1] = tested on: Mycobacterium tuberculosis; assay: Cornell M. t heat shock assay; format: functional, organism-based; settings: for IC50: Mycobacterium tuberculosis
[2] = molecular target: T1, Histidine--tRNA ligase (Leishmania infantum, UniProt A4I591); assay: Leishmania infantum Histidine tRNA synthetase (LdHisRS); format: functional
T1 sequence (A4I591 whole entry): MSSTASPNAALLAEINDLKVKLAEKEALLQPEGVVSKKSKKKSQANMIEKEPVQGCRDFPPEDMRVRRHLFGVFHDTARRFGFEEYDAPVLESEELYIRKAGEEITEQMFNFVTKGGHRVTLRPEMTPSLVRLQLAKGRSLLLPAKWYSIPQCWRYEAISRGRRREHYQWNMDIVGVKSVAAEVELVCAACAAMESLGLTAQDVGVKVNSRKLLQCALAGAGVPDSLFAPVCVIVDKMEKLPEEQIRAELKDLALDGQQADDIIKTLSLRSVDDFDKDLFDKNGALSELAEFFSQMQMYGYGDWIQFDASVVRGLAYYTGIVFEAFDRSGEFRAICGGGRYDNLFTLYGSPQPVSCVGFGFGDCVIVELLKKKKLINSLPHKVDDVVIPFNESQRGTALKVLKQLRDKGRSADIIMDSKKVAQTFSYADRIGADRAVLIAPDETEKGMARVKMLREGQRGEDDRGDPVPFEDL

[3] = tested on: Wolbachia pipientis; assay: Anti-Wolbachia Cell-Based Screen; format: functional; settings: for IC50: Wolbachia pipientis
[4] = molecular target: ClpP1P2 (Mycobacterium tuberculosis (strain ATCC 25618 / H37Rv), UniProt P9WPC3+P9WPC5); assay: in vitro assay to detect presence of AMC directly proportional to the activity of ClpP1P2. GHDDI collaboration.; format: functional
[5] = molecular target: Polyketide synthase Pks13 (Mycobacterium tuberculosis (strain ATCC 25618 / H37Rv), UniProt I6X8D2); assay: Mycobacterium tuberculosis Polyketide synthase 13 Thioesterase (PKS13); format: functional
[6] = microbe, parasite or virus in culture; settings: Mycobacterium tuberculosis, 72 h, read-out: pIC50 (converted)
[7] = microbe, parasite or virus in culture; settings: Mycobacterium tuberculosis, 96 h, read-out: pIC50 (converted)
[8] = tested on: Schistosoma mansoni; assay: High throughput screening of compounds against Schistosoma mansoni motility; format: functional; set-up: dose or concentration left out as unconfirmed
[9] = molecular target: Lysine--tRNA ligase (Plasmodium falciparum (isolate 3D7), UniProt Q8IDJ8); assay: Pf-KRS-1 (Lysyl-RNA Synthetase-1, KRS-1, cytosolic KRS) from Plasmodium falciparum. Inhibitor assay, 384 well plate, luminescence read.; format: functional
Sequence of Lysine--tRNA ligase (Q8IDJ8 whole entry): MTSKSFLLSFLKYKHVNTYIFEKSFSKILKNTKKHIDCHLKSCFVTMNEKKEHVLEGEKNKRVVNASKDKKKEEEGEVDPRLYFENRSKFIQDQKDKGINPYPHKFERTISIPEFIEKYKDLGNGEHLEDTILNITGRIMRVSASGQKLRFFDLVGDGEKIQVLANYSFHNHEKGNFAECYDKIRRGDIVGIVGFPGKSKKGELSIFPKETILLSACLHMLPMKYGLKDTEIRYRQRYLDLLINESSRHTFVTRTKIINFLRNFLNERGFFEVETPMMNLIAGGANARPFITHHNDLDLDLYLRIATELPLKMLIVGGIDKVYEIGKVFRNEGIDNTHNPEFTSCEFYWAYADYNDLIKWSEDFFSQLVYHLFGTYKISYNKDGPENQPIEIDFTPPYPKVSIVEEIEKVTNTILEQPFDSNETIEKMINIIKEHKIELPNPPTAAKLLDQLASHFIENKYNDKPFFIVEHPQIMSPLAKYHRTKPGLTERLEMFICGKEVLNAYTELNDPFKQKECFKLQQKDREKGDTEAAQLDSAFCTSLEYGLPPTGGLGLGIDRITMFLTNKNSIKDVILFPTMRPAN

Sequence of Polyketide synthase Pks13 (I6X8D2 whole entry): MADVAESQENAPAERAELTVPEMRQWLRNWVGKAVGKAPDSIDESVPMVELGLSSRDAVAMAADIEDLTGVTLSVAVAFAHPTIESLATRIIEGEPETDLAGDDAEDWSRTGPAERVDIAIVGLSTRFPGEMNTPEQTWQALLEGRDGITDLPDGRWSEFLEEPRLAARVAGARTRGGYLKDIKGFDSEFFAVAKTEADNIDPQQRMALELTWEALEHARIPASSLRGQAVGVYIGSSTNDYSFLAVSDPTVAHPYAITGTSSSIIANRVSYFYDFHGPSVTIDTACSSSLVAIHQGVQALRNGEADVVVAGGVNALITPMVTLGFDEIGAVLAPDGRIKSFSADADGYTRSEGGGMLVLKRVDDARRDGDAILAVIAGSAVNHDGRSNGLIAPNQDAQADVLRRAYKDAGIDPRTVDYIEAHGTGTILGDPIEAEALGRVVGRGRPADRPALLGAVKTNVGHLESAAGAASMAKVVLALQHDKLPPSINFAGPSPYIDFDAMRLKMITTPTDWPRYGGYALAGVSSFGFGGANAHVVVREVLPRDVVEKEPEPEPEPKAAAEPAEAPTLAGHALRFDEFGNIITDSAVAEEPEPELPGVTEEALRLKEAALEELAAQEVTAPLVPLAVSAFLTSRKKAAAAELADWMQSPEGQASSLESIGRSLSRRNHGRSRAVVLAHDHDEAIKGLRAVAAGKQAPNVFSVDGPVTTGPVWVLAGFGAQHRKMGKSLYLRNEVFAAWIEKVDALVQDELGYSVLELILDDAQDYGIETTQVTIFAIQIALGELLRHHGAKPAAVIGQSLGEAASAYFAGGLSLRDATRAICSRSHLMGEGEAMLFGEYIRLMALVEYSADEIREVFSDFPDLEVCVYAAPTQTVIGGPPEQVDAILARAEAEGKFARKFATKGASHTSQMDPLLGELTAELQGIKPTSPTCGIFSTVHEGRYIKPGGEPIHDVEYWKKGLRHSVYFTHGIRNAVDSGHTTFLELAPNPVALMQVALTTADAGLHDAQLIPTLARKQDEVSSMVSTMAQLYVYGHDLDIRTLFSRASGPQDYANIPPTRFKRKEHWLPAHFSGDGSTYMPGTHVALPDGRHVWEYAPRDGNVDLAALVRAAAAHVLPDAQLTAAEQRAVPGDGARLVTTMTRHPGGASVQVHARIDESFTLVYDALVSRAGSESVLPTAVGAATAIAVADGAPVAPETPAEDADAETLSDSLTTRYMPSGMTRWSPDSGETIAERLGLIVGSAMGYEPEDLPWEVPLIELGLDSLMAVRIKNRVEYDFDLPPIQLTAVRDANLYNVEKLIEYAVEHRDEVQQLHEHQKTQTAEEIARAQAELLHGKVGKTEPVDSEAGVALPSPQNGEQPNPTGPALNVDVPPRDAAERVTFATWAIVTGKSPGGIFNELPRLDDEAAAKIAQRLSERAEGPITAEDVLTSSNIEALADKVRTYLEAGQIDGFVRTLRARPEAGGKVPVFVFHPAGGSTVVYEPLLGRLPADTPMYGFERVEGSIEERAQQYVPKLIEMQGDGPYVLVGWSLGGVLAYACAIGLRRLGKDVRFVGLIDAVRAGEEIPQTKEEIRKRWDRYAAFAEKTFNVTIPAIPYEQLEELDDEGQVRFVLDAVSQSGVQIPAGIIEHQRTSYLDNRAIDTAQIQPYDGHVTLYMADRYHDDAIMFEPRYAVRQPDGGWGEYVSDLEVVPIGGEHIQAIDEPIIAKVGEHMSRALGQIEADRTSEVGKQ
Sequence of ClpP1P2 (P9WPC5 whole entry): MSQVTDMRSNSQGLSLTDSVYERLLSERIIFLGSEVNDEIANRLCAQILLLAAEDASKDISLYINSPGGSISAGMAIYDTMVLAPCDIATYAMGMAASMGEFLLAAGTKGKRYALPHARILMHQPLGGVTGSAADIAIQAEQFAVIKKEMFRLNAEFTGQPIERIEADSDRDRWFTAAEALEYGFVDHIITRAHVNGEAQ
Sequence of ClpP1P2 (P9WPC3 whole entry): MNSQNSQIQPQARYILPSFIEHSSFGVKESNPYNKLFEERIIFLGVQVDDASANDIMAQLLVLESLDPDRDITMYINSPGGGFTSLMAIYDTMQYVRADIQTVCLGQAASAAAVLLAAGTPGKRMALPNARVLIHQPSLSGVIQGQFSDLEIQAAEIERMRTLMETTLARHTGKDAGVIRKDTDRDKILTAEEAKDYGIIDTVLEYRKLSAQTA

COc1cc(C(=O)Nc2nc(C)no2)ccc1OC(F)F
pIC50 [1]: 4.585
IC50 [1]: 41.3 µM

Cn1ccnc1C(NCc1ccc(Br)cc1)c1ccccc1 (configuration not stated)
IC50 [1]: 17.7 µM

Cc1noc(NC(=O)c2ccccc2)n1
pIC50 [1]: 4.405
IC50 [1]: 62.6 µM

Cc1cc(-c2cnc(N3CCCCCC3)nc2-c2cccnc2C)on1
pIC50 [1]: 4.097
IC50 [1]: 68.5 µM

N#Cc1ccc(N2CCCC3(CCN(c4cccnc4)CC3)C2)cc1.O=C(O)C(F)(F)F
IC50 [2]: 24.6 µM and 24.2 µM
pIC50 [3]: 6.279 and 5.873

Cc1ccc(O)c(CN(CCCn2ccnc2)Cc2ccc(C)s2)c1.O=C(O)CC(O)(CC(=O)O)C(=O)O
pIC50 [1]: 4.427
IC50 [1]: 42.9 µM

COCCCNC(=O)CN(C)C(=O)c1cc(Cl)ccc1O
pIC50 [1]: < 4
IC50 [1]: 87.8 µM

COCCN(C)c1ccc(NCc2ccsc2)nc1
IC50 [1]: > 100 µM

COc1cccc(C(NCc2ccc(SC)cc2)c2nccn2C)c1 (configuration not stated)
IC50 [1]: 6.39 µM

CC(CCSc1ccccc1)N1CCN(C(=O)c2cccs2)CC1 (configuration not stated)
IC50 [1]: > 100 µM

CCNc1cc2c(nn1)CCN(C(=O)c1ccnc(C)n1)C2
IC50 [2]: 58.6 µM and 51.7 µM
IC50 [3]: > 10 µM

CCn1cc(-c2cc(-c3cc(CN(C)C)cs3)nc(N)c2C#N)c(C)n1
IC50 [4]: > 100 µM
IC50 [5]: 24.7 µM and 11 µM
IC50 [3]: > 10 µM

Cc1cc(-c2cnc(NCc3ccccn3)nc2C(C)C)on1
IC50 [1]: > 100 µM

COc1cc(C(=O)Nc2nc(C)no2)cc(OC)c1Br
pIC50 [1]: 4.518
IC50 [1]: 21 µM

CC(C)c1nc(N2CCC(N3CCCCCC3)CC2)c2cnn(C)c2n1
IC50 [1]: 52.5 µM

CCN1c2ccc(-c3cncn3CC(=O)NC(C)(C)C)cc2CC1C (configuration not stated)
IC50 [1]: > 100 µM

O=C(NCC(O)c1ccsc1)Nc1cccs1 (configuration not stated)
IC50 [1]: 67.5 µM

Cn1c(CCN2CCN(CCc3ccccc3)CC2)nc2ccccc21
IC50 [1]: > 100 µM

Cc1cc2ccccc2n1CCC(=O)N1CCN(C)CC1C(N)=O (configuration not stated)
IC50 [1]: > 100 µM

CCOc1ncccc1NC(=O)N1CCN(c2ccc(O)cc2)CC1
IC50 [1]: > 100 µM

COC(=O)[C@H](CCSC)NC(=O)Cn1ccc2c(Cl)cccc21
IC50 [1]: 70.7 µM

COc1cc(C(=O)Nc2nc(C)no2)cc(Cl)c1OC
pIC50 [1]: 4.499
IC50 [1]: 24.8 µM

Cc1ccc(C(C)N(C)Cc2nc3c(cnn3C)c(=O)[nH]2)s1 (configuration not stated)
IC50 [1]: > 100 µM

Cc1cc(-c2cnc(NC3CCCC3)nc2-c2ccc(C)o2)on1
pIC50 [1]: 4.052
IC50 [1]: > 100 µM

COc1ccc(CNC(Cc2ccsc2)c2ccc(C)cn2)cc1OC (configuration not stated)
IC50 [1]: 25.6 µM

Oc1cc(C2CCCN(Cc3cccs3)C2)nc(-c2ccccn2)n1 (configuration not stated)
pIC50 [1]: 4.835 and 5.179

Cc1nc(-c2ccccc2)cc2nn(CC(N)=O)c(=O)n12
IC50 [1]: > 100 µM

Cc1cnn(CC2CCCN2Cc2nc(C)c3ccccc3n2)c1 (configuration not stated)
IC50 [1]: 34.9 µM

COc1cccc(S(=O)(=O)NC(=O)CCC2CCCC2)c1
IC50 [1]: > 100 µM

Cc1ccc(CN2CCn3c(CNC(=O)c4cccn4C)cnc3C2)s1
IC50 [2]: 64.8 µM and 62.5 µM
IC50 [3]: > 10 µM

CCn1nc(C)c(CNC(=O)c2nnc3ccc(Cl)cc3n2)c1C
IC50 [1]: 17.3 µM

O=c1[nH]c(CCN2CCCC2Cn2cccn2)nc2ccccc12 (configuration not stated)
IC50 [1]: 47.5 µM

Cc1ccccc1OC1CCN(CC(=O)Nc2cn(C)nc2C)CC1
IC50 [1]: > 100 µM

Cc1cc(N2CCOCC2)ccc1NC(C)c1nc(C(C)C)no1 (configuration not stated)
IC50 [1]: > 100 µM

CO[C@@H]1CCN(c2nnc(C)s2)C[C@@H]1Cc1ccccc1.O=C(O)C(F)(F)F
IC50 [6]: 11.3 µM
IC50 [7]: 7.95 µM
pIC50 [3]: 6.169
IC50 [3]: 0.958 µM

Cc1cc(O)cc(=O)n1CCCC(=O)Nc1n[nH]c2cccc(F)c12
IC50 [1]: > 100 µM

CCC(NC(=O)Nc1ccc(OC)c(C)c1)c1ccncc1 (configuration not stated)
IC50 [1]: 49.9 µM

c1ccc(CCN2CCCC2c2cncc(Nc3nncs3)n2)cc1 (configuration not stated)
IC50 [1]: 25.5 µM

CNc1cc(C2CN(Cc3scnc3C)CCO2)nc(C)n1 (configuration not stated)
IC50 [1]: > 100 µM

CCOc1cccc(COC(=O)c2cscn2)n1
IC50 [1]: > 100 µM

O=C(Nc1ccnc2ccnn12)c1ccc(N2CCC(O)CC2)cc1
IC50 [1]: 74.1 µM

Cc1cccc(CNC(Cc2ccsc2)c2nccs2)n1 (configuration not stated)
IC50 [1]: 49.9 µM

Cc1cc(NCc2ccccc2)nc2[nH]nc(N)c12
IC50 [1]: 79.8 µM

CC(C)Cn1nc(-c2ccc(C(=O)O)cc2)cc1-c1ccc(F)cc1
IC50 [1]: 97.1 µM

O=C(O)C(F)(F)F.O=C(O)C(F)(F)F.c1cncc(-c2ccc3c(c2)CCC32CCN(Cc3ccco3)CC2)c1
IC50 [6]: 20.5 µM
IC50 [7]: 28.7 µM
pIC50 [3]: 6.473
IC50 [3]: 0.404 µM

c1nnc(Nc2cncc(C3CCCN3)n2)s1 (configuration not stated)
IC50 [1]: 6.43 µM

c1ccc(-c2nc(CN3CCCC(Cn4cncn4)C3)cs2)cc1 (configuration not stated)
IC50 [1]: 54.6 µM

COc1ccc(N2CCC(NCc3csc(C(C)C)n3)CC2)cc1
IC50 [1]: > 100 µM

Cc1cnn(CC2CCCN2Cc2nc3ccccc3c(=O)[nH]2)c1 (configuration not stated)
IC50 [1]: 17.9 µM

CC1c2cc(F)ccc2CCN1C(=O)c1[nH]c(=O)[nH]c(=O)c1N (configuration not stated)
IC50 [1]: 66.9 µM

c1nnc(Nc2cncc(C3CCCN3CC3CC3)n2)s1 (configuration not stated)
IC50 [1]: 29.8 µM

COc1ccccc1C(NCc1ccc(SC)cc1)c1nccn1C (configuration not stated)
IC50 [1]: 48.8 µM

CSc1ccc(CNC(c2ccccc2F)c2nccn2C)cc1 (configuration not stated)
IC50 [1]: 16.4 µM

Cc1cccc(CN2CCCC2c2cncc(Nc3nncs3)n2)c1 (configuration not stated)
IC50 [1]: 17.1 µM

Nc1cc(-c2cccs2)nn(CC(=O)NCC2CCCCC2)c1=O
IC50 [1]: > 100 µM

COc1ccc(CNC(Cc2ccsc2)c2ncccc2C)cc1OC (configuration not stated)
IC50 [1]: > 49 µM

CSCC[C@H](N)C(=O)NCc1cc2n(n1)CCCN(C(=O)C1CCC1)C2
IC50 [3]: > 10 µM
Percent Effect [8]: -28.36%

Cc1cnc(NC(=O)c2csc(NCC(C)C)n2)s1
IC50 [1]: 1.99 µM

COc1ccc(CN2CCc3c(nc(-c4ccccn4)[nH]c3=O)C2)cc1
pIC50 [1]: 4.829 and 5.147

c1ccc2nc(CN3CCCC3c3noc(C4CC4)n3)ccc2c1 (configuration not stated)
IC50 [1]: 23.8 µM

CO[C@@H]1CCN(c2nnc(C)s2)C[C@@H]1Cc1cccc(C)c1.O=C(O)C(F)(F)F
IC50 [6]: 41.6 µM
IC50 [7]: 16.3 µM
pIC50 [3]: 5.813
IC50 [3]: 1.57 µM

Cc1cc(C)cc(CNC(c2ccccc2)c2nccn2C)c1 (configuration not stated)
IC50 [1]: 4.29 µM

Cc1ccsc1CN(c1nc(CCN)nc2ccccc12)C1CC1
IC50 [1]: 49.6 µM

COc1cc(-c2cc(NC3CCCC3)nc3[nH]ccc23)nc(N)n1
IC50 [1]: 2.7 µM

CN(Cc1ccc(F)cc1)CC1(O)CCCN(CC(C)(C)C)C1=O (configuration not stated)
IC50 [3]: > 10 µM
Percent Effect [8]: 7.085%

Fc1ccc(CN2CCCC(c3cc4ncccc4[nH]3)C2)cc1 (configuration not stated)
IC50 [6]: 33.7 µM
IC50 [7]: 24.3 µM
pIC50 [3]: 5.047
IC50 [3]: 6.78 µM

CNc1cc(C)nc(N2Cc3cnn(Cc4ccc(F)cc4)c3C2)n1
IC50 [6]: 33.6 µM
IC50 [7]: 24.2 µM
pIC50 [3]: 6.156
IC50 [3]: 0.556 µM

O=C1[C@H]2CC[C@H](CN(c3ncnc4ccsc34)C2)N1CC1CC1
IC50 [6]: > 50.1 µM
IC50 [7]: > 50.1 µM
IC50 [5]: > 100 µM
pIC50 [3]: 5.348
IC50 [3]: 5.55 µM

O=C(O)C(F)(F)F.c1cc(-c2ccc3c(c2)CCC32CCN(c3nncs3)CC2)ccn1
IC50 [2]: 19.6 µM and 24.9 µM
pIC50 [3]: 5.133
IC50 [3]: 5.68 µM

CO[C@H]1CCN(c2nnc(C)s2)C[C@@H]1Cc1cccc(C)c1.O=C(O)C(F)(F)F
IC50 [6]: 41.7 µM
IC50 [7]: 16.7 µM
pIC50 [3]: 5.267
IC50 [3]: 3.74 µM

COc1ccc(C[C@H]2CN(c3nnc(C)s3)CC[C@H]2OC)cc1.O=C(O)C(F)(F)F
IC50 [6]: 16.3 µM
IC50 [7]: 16.4 µM
pIC50 [3]: 6.226
IC50 [3]: 0.462 µM

COc1ccc(CC(=O)N(C)c2cccnc2N(C)C)c(Cl)c1
IC50 [2]: 19.4 µM and 16.5 µM
IC50 [9]: > 50.1 µM
pIC50 [3]: 5.287
IC50 [3]: 4.83 µM
